# From patent US11377464B2, “Galactoside inhibitor of galectins” (Galecto Biotech AB, priority 2015, dated 2022)
# What was measured:
# galectins = settings: cited from earlier work
# galectin-3 = galectin-3 (Homo sapiens (Human), UniProt P17931); assay: Fluorescence anisotropy assay: compound as inhibitor of the interaction between galectin and a fluorescein tagged saccharide probe; assay type: binding; settings: 50 nM galectin-3, 100 nM albumin for high affinity compounds
# Protocol: 100 nM albumin was included as a carrier to prevent protein loss at such low concentration of galectin.
# galectin-3, sequence (P17931 whole entry): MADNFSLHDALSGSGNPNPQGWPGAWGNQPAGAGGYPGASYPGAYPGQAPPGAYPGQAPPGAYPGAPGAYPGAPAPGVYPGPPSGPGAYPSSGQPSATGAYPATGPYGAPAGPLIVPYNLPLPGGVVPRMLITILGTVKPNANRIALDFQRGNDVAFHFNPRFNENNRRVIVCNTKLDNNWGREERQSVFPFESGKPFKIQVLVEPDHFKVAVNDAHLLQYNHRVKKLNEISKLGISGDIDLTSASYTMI
Kd (galectin-3),Compound,affinity relative to lactose (galectins)
–,"O=C[C@H](O)[C@@H](O)[C@@H](O)[C@H](O)CO [D-galactose, D-(+)-galactose]",50-100 times lower
560 nM,O=C(NCC(F)(F)F)c1cn([C@@H]2C(O)[C@@H](Sc3ccc(Cl)c(Cl)c3)OC(CO)[C@@H]2O)nn1 (stereo in doubt) [Example 98],–
